# Test results as given in patent US10442791B2, “DNA-PK inhibitors” (Vertex Pharmaceuticals Incorporated, priority 2012, dated 2019).
# Legend:
# Type in all cases: cell-based
# MCF7 = assay: Cell viability following irradiation (CellTiter-Glo), MCF7; settings: MCF7 (Breast Cancer), viability at 6 days
# Protocol: (§1) To evaluate the radiosensitizing effects of compounds of the invention in combination with ionizing radiation (IR), a broad panel of cell lines across multiple tumor types and genetic backgrounds were tested. Cells were incubated with DMSO or compound 578 for 30 minutes and then exposed to various doses of radiation (0, 0.5, 1, 2, 4, 6, 8, and 16 Gy). Cell viability was assessed at 6 days using CellTiter-Glo® (Promega, Inc).
# Colo-205 = assay: Cell viability following irradiation (CellTiter-Glo), Colo-205; settings: Colo-205 (Colorectal Cancer), viability at 6 days
# Protocol: as §1
# HCT116 = assay: Cell viability following irradiation (CellTiter-Glo), HCT116; settings: HCT116 (Colorectal Cancer), viability at 6 days
# Protocol: as §1
# FaDu = assay: Cell viability following irradiation (CellTiter-Glo), FaDu; settings: FaDu (Head and Neck Squamous Cell Carcinoma), viability at 6 days
# Protocol: as §1
# H1299 = assay: Cell viability following irradiation (CellTiter-Glo), H1299; settings: H1299 (Lung Cancer), viability at 6 days
# Protocol: as §1
# PC3 = assay: Cell viability following irradiation (CellTiter-Glo), PC3; settings: PC3 (Prostate Cancer), viability at 6 days
# Protocol: as §1
# [1] = test system: human fibroblast cell lines (HFL1, IMR90 and MRC5), ARPE19, NHBE, SAEC; assay: Cell viability following irradiation, normal cell lines; settings: exception: HS68
# Protocol: as §1
compound,measurement,setting,value
"CNC(=O)c1ccnc2c([C@H](C)CNc3cc(-c4cnc(C)nc4)ncn3)cccc12 [Compound 578, (S)—N-methyl-8-(1-((2′-methyl-[4,5′-bipyrimidin]-6-yl)amino)propan-2-yl)quinoline-4-carboxamide]",EC50 IR,MCF7; compound 578 0.7 μM + IR,4.9 Gy
same,EC50 IR,MCF7; compound 578 2.1 μM + IR,3.3 Gy
same,EC50 IR,Colo-205; compound 578 0.7 μM + IR,0.7 Gy
same,EC50 IR,Colo-205; compound 578 2.1 μM + IR,0.7 Gy
same,EC50 IR,HCT116; compound 578 0.7 μM + IR,0.5 Gy
same,EC50 IR,HCT116; compound 578 2.1 μM + IR,<0.5 Gy
same,EC50 IR,FaDu; compound 578 0.7 μM + IR,2 Gy
same,EC50 IR,FaDu; compound 578 2.1 μM + IR,1.9 Gy
same,EC50 IR,H1299; compound 578 0.7 μM + IR,1.1 Gy
same,EC50 IR,H1299; compound 578 2.1 μM + IR,1.5 Gy
same,EC50 IR,PC3; compound 578 0.7 μM + IR,0.5 Gy
same,EC50 IR,PC3; compound 578 2.1 μM + IR,<0.5 Gy
same,radiosensitization,[1],only marginal radiosensitization
